From patent US11319299B2, “Substituted carboxamides as inhibitors of WDR5 protein-protein binding” (PROPELLON THERAPEUTICS INC., priority 2016, dated 2022) come the findings set out here.

pKd: −log10 of the molar value.

In the assay the target is WDR5 (Homo sapiens (Human), UniProt P61964). The assay can be described thus: Surface Plasmon Resonance (SPR) assay, KD and residence time. Type of assay: binding. As to conditions: surface plasmon resonance (SPR) assay; read-out: WDR5 binding affinity (KD). Background: Surface plasmon resonance follows binding to a sensor surface in real time, without labels.

Take `C[C@@H]1CN(c2cc(F)c(-c3cnc(N4CCOCC4)nc3)cc2NC(=O)c2cc(O)cc(C(F)(F)F)c2)C[C@H](C)N1C` [Example 280, N-[4-fluoro-5-(2-morpholin-4-ylpyrimidin-5-yl)-2-[(3R,5S)-3,4,5-trimethylpiperazin-1-yl]phenyl]-3-hydroxy-5-(trifluoromethyl)benzamide]: the pKd (usually the negative decadic logarithm of the Kd, by convention in mol/L) is 8.51.
For `C[C@@H]1CN(c2cc(F)c(-c3cnc(N4CCOCC4)nc3)cc2NC(=O)c2cccc(O)c2)C[C@H](C)N1C` [Example 281, N-[4-fluoro-5-(2-morpholin-4-ylpyrimidin-5-yl)-2-[(3R,5S)-3,4,5-trimethylpiperazin-1-yl]phenyl]-3-hydroxybenzamide], the negative-log Kd (pKd) was 7.54.
On to `C[C@@H]1CN(c2cc(F)c(-c3cnc(N4CCOCC4)nc3)cc2NC(=O)c2c(O)cnc3ccccc23)C[C@H](C)N1C` [Example 282, N-[4-fluoro-5-(2-morpholin-4-ylpyrimidin-5-yl)-2-[(3R,5S)-3,4,5-trimethylpiperazin-1-yl]phenyl]-3-hydroxyquinoline-4-carboxamide], for which the pKd was 8.70.
On to `CN(C)[C@@H]1CCN(c2cc(F)c(-c3cnc(N4CCOCC4)nc3)cc2NC(=O)c2cn(C)nc2C(F)(F)F)C1` [Example 283, N-[4-fluoro-5-(2-morpholin-4-ylpyrimidin-5-yl)-2-[(3R)-3-(dimethylamino)pyrrolidin-1-yl]phenyl]-1-methyl-3-(trifluoromethyl)pyrazole-4-carboxamide], for which the negative logarithm of the Kd (pKd) is 7.83.
In the case of `C[C@@H]1CN(c2cc(F)c(C3=CCN(C(=O)N(C)C)CC3)cc2NC(=O)c2c[nH]c(=O)cc2C(F)(F)F)C[C@H](C)N1C` [Example 285, N-[5-[1-(dimethylcarbamoyl)-3,6-dihydro-2H-pyridin-4-yl]-4-fluoro-2-[(3R,5S)-3,4,5-trimethylpiperazin-1-yl]phenyl]-6-oxo-4-(trifluoromethyl)-1H-pyridine-3-carboxamide], the pKd was 9.00.
The same measure for `C[C@@H]1CN(c2cc(F)c(C3=CCN(C(=O)N4CCCC4)CC3)cc2NC(=O)c2c[nH]c(=O)cc2C(F)(F)F)C[C@H](C)N1C` [Example 286, N-[4-fluoro-5-[1-(pyrrolidine-1-carbonyl)-3,6-dihydro-2H-pyridin-4-yl]-2-[(3R,5S)-3,4,5-trimethylpiperazin-1-yl]phenyl]-6-oxo-4-(trifluoromethyl)-1H-pyridine-3-carboxamide]: 8.93; for `C[C@@H]1CN(c2cc(F)c(C3=CCN(C(=O)N4CCN(C)CC4)CC3)cc2NC(=O)c2c[nH]c(=O)cc2C(F)(F)F)C[C@H](C)N1C` [Example 287, N-[4-fluoro-5-[1-(4-methylpiperazine-1-carbonyl)-3,6-dihydro-2H-pyridin-4-yl]-2-[(3R,5S)-3,4,5-trimethylpiperazin-1-yl]phenyl]-6-oxo-4-(trifluoromethyl)-1H-pyridine-3-carboxamide]: 8.86.
The same measure for `C[C@@H]1CN(c2cc(F)c(C3=CCN(C(=O)Oc4ccccc4)CC3)cc2NC(=O)c2c[nH]c(=O)cc2C(F)(F)F)C[C@H](C)N1C` [Example 288, phenyl 4-[2-fluoro-5-[[6-oxo-4-(trifluoromethyl)-1H-pyridine-3-carbonyl]amino]-4-[(3R,5S)-3,4,5-trimethylpiperazin-1-yl]phenyl]-3,6-dihydro-2H-pyridine-1-carboxylate]: 8.95.
On to `C[C@@H]1CC(N2CC=C(c3cc(NC(=O)c4c[nH]c(=O)cc4C(F)(F)F)c(N4C[C@@H](C)N(C)[C@@H](C)C4)cc3F)CC2)C[C@H](C)O1` (stereo partly drawn) [Example 289, N-[4-fluoro-5-[1-[(2R,6S)-2,6-dimethyloxan-4-yl]-3,6-dihydro-2H-pyridin-4-yl]-2-[(3S,5R)-3,4,5-trimethylpiperazin-1-yl]phenyl]-6-oxo-4-(trifluoromethyl)-1H-pyridine-3-carboxamide], for which the pKd was 8.43.
The result for `C[C@@H]1CN(c2cc(F)c(-c3cnc(N4CCOCC4)nc3)cc2NC(=O)c2ccc(O)cc2C(F)(F)F)C[C@H](C)N1C` [Example 290, N-[4-fluoro-5-(2-morpholin-4-ylpyrimidin-5-yl)-2-[(3R,5S)-3,4,5-trimethylpiperazin-1-yl]phenyl]-4-hydroxy-2-(trifluoromethyl)benzamide] reads 8.05; that for `C[C@@H]1CN(c2cc(F)c(-c3cnc(N4CCOCC4)nc3)cc2NC(=O)c2cc(O)cc(F)c2F)C[C@H](C)N1C` [Example 291, 2,3-difluoro-N-[4-fluoro-5-(2-morpholin-4-ylpyrimidin-5-yl)-2-[(3R,5S)-3,4,5-trimethylpiperazin-1-yl]phenyl]-5-hydroxybenzamide], 8.38.
With `C[C@@H]1CN(c2cc(F)c(-c3ccnc(OCC4CCC4)c3)cc2NC(=O)c2c[nH]c(=O)cc2C(F)(F)F)C[C@H](C)N1C` [Example 292, N-[5-[2-(cyclobutylmethoxy)pyridin-4-yl]-4-fluoro-2-[(3R,5S)-3,4,5-trimethylpiperazin-1-yl]phenyl]-6-oxo-4-(trifluoromethyl)-1H-pyridine-3-carboxamide], the pKd was 8.36.
As to `C[C@@H]1CN(c2cc(F)c(-c3ccnc(OCC(C)(C)C)c3)cc2NC(=O)c2c[nH]c(=O)cc2C(F)(F)F)C[C@H](C)N1C` [Example 293, N-[5-[2-(2,2-dimethylpropoxy)pyridin-4-yl]-4-fluoro-2-[(3R,5S)-3,4,5-trimethylpiperazin-1-yl]phenyl]-6-oxo-4-(trifluoromethyl)-1H-pyridine-3-carboxamide], the pKd is 8.52.
Consider `CCN(CC)c1ncc(-c2cc(NC(=O)c3c[nH]c(=O)cc3C(F)(F)F)c(N3C[C@@H](C)N(C)[C@@H](C)C3)cc2F)cn1` [Example 294, N-[5-[2-(diethylamino)pyrimidin-5-yl]-4-fluoro-2-[(3R,5S)-3,4,5-trimethylpiperazin-1-yl]phenyl]-6-oxo-4-(trifluoromethyl)-1H-pyridine-3-carboxamide], for which the negative logarithm of the Kd (pKd) was 8.65.
As for `C[C@@H]1CN(c2cc(F)c(-c3cnc(N4CCOCC4)nc3)cc2NC(=O)c2cccc(F)c2C(F)(F)F)C[C@H](C)N1C` [Example 295, 3-fluoro-N-[4-fluoro-5-(2-morpholin-4-ylpyrimidin-5-yl)-2-[(3R,5S)-3,4,5-trimethylpiperazin-1-yl]phenyl]-2-(trifluoromethyl)benzamide], the negative-log Kd (pKd) is 7.95.
In the case of `C[C@@H]1CN(c2cc(F)c(-c3cnc(N4CCOCC4)nc3)cc2NC(=O)c2cc(F)c(F)c(F)c2)C[C@H](C)N1C` [Example 296, 3,4,5-trifluoro-N-[4-fluoro-5-(2-morpholin-4-ylpyrimidin-5-yl)-2-[(3R,5S)-3,4,5-trimethylpiperazin-1-yl]phenyl]benzamide], the pKd was 7.67.
With `C[C@@H]1CN(c2cc(F)c(-c3cnc(N4CCOCC4)nc3)cc2NC(=O)c2c(F)cccc2C(F)(F)F)C[C@H](C)N1C` [Example 297, 2-fluoro-N-[4-fluoro-5-(2-morpholin-4-ylpyrimidin-5-yl)-2-[(3R,5S)-3,4,5-trimethylpiperazin-1-yl]phenyl]-6-(trifluoromethyl)benzamide], the negative logarithm of the Kd (pKd) was 7.64.
Take `CCCN(C)C1CCN(c2cc(F)c(-c3cnc(N4CCOCC4)nc3)cc2NC(=O)c2c[nH]c(=O)cc2C(F)(F)F)C1` (stereo not drawn) [Example 303, N-[4-fluoro-2-[3-[methyl(propyl)amino]pyrrolidin-1-yl]-5-(2-morpholin-4-ylpyrimidin-5-yl)phenyl]-6-oxo-4-(trifluoromethyl)-1H-pyridine-3-carboxamide]: the negative logarithm of the Kd (pKd) was 8.77.
For `C[C@@H]1CN(c2cc(F)c(C3=CCN(C(=O)CN(C)C)CC3)cc2NC(=O)c2c[nH]c(=O)cc2C(F)(F)F)C[C@H](C)N1C` [Example 305, N-[5-[1-[2-(dimethylamino)acetyl]-3,6-dihydro-2H-pyridin-4-yl]-4-fluoro-2-[(3R,5S)-3,4,5-trimethylpiperazin-1-yl]phenyl]-6-oxo-4-(trifluoromethyl)-1H-pyridine-3-carboxamide], the pKd is 8.58.
Regarding `C[C@@H]1CN(c2cc(F)c(-c3cnc(N4CCN(C(=O)CCC(=O)O)CC4)nc3)cc2NC(=O)c2c[nH]c(=O)cc2C(F)(F)F)C[C@H](C)N1C` [Example 306, 4-[4-[5-[2-fluoro-5-[[6-oxo-4-(trifluoromethyl)-1H-pyridine-3-carbonyl]amino]-4-[(3R,5S)-3,4,5-trimethylpiperazin-1-yl]phenyl]pyrimidin-2-yl]piperazin-1-yl]-4-oxobutanoic acid], the negative-log Kd (pKd) was 9.10.
As for `C[C@@H]1CN(c2cc(F)c(C3=CCN(C(=O)OC(C)(C)C)CC3)cc2NC(=O)c2cn(C)c(=O)cc2C(F)(F)F)C[C@H](C)N1C` [Example 313, tert-butyl 4-[2-fluoro-5-[[-methyl-6-oxo-4-(trifluoromethyl)pyridine-3-carbonyl]amino]-4-[(3R,5S)-3,4,5-trimethylpiperazin-1-yl]phenyl]-3,6-dihydro-2H-pyridine-1-carboxylate], the negative-log Kd (pKd) is 8.51.
Regarding `C[C@@H]1CN(c2cc(F)c(-c3ccc(OCC4CC4)nc3)cc2NC(=O)c2c[nH]c(=O)cc2C(F)F)C[C@H](C)N1C` [Example 314, N-[5-[6-(cyclopropylmethoxy)pyridin-3-yl]-4-fluoro-2-[(3R,5S)-3,4,5-trimethylpiperazin-1-yl]phenyl]-4-(difluoromethyl)-6-oxo-1H-pyridine-3-carboxamide], the negative-log Kd (pKd) is 8.78.
As to `CCn1cc(C(=O)Nc2cc(-c3cnc(N4CCOCC4)nc3)c(F)cc2N2C[C@@H](C)N(C)[C@@H](C)C2)c(C(F)(F)F)cc1=O` [Example 315, 1-ethyl-N-[4-fluoro-5-(2-morpholin-4-ylpyrimidin-5-yl)-2-[(3R,5S)-3,4,5-trimethylpiperazin-1-yl]phenyl]-6-oxo-4-(trifluoromethyl)pyridine-3-carboxamide], the pKd was 8.07.
The same measure for `C[C@@H]1CN(c2cc(F)c(-c3cnc(N4CC(C)(C)OC(C)(C)C4)nc3)cc2NC(=O)c2c[nH]c(=O)cc2C(F)(F)F)C[C@H](C)N1C` [Example 320, N-[4-fluoro-2-[(3R,5S)-3,4,5-trimethylpiperazin-1-yl]-5-[2-(2,2,6,6-tetramethylmorpholin-4-yl)pyrimidin-5-yl]phenyl]-6-oxo-4-(trifluoromethyl)-1H-pyridine-3-carboxamide]: 9.14.
